Test results as given in patent publication US20220125959A1, “PROSTATE-SPECIFIC MEMBRANE ANTIGEN (PSMA) INHIBITORS AS DIAGNOSTIC AND RADIONUCLIDE THERAPEUTIC AGENTS” (FIVE ELEVEN PHARMA INC., priority 2019, published 2022).
“And” between values parts separate entries of the source, which are not always exact repeats. Equal entries are not always repeated.

Columns and labels:
[1] = test system: PSMA-positive cell line, PIP PC3; experiment: In vitro cell uptake, PIP PC3 cells; type: cell-based
Experimental: To determine the cell uptakes of the [^177Lu] labelled ligands, 5×10^5 cells/well were grown in 12-well plates in 1 mL of medium for 48 h. The cells were washed twice with PBS, and 900 μL fresh media were added. […] All samples were prepared in triplicate. Following the incubation at 37° C., cells were washed twice to remove unbound activity and afterwards lysed in 1 mL of 0.5 M NaOH. Activity was measured in a gamma counter. Aliquots of the solution added to the cells were also measured for the calculation of the cellular uptake as % ID.

[2] = Stability of injected doses after formulation; type: physicochemical; details: at 48 hr after formulation
Experimental: ^68Ga labeling: To 15 nmole ligand 4 (1 mg/mL DMSO) were added 20 μL of 2.0 N NaOAc, 500 μL ^68Ga-solution (2.25 mCi). The reaction was heated in a heating block at 90° C. for 10 minutes in a 3 mL closed vial. After cooling, the sample was analyzed by HPLC (HPLC: Eclise XDB C18 150×4.6 mm, gradient, 2 mL/min; A: 0.1% TFA in water; B: 0.1% TFA in ACN: 0-2 min 100% A; 2-4 min: from 0% to 100% B; 4-9 min: 100% B; 9-10 min: from 100% to 0% B). Radiochemical purity of [^68Ga]4 was >99% RCP (FIG. 1) and injected doses were stable at 2 hr after formulation.
(§1) ^177Lu labeling: To 10 μg ligand (1 mg/mL DMSO) were added 15 μL of 2.0 N NaOAc, 400 μL 0.05 N HCl, and 20 μL ^177Lu-solution (780 μCi (Capintec setting 450 (reading×10)). The reaction was heated with a heating block at 95° C. for 1 hour in a 3 mL closed vial. After cooling, the sample was analyzed by HPLC (HPLC: Eclipse XDB-C18 150×4.6 mm, gradient, 1 mL/min; A: 0.1% TFA in water; B: 0.1% TFA in ACN: 0-4 min A/B 85/15%; 4-11 min: from 85/15 to 30/70%; 11-14 min: from 30/70% to 85/15%). Radiochemical purity of [^177Lu]4 (FIG. 2) and [^177Lu]7 was >98% and injected doses were stable at 48 hr after formulation.
(§2) For iv injection 150 μL of labeled solution was diluted with saline to 3.75mL. Mice were injected with 150 μL of formulated dose. Injected radioactivity was 100 μCi and PSMA ligand amount was constant at 0.72 nmole/mouse.

[3] = test system: PSMA-negative cell line, PC3; experiment: In vitro cell uptake, PC3 cells; type: cell-based; details: PC3 (do not express PSMA), 60 min
Experimental: To determine the cell uptakes of the [^177Lu] labelled ligands, 5×10^5 cells/well were grown in 12-well plates in 1 mL of medium for 48 h. The cells were washed twice with PBS, and 900 μL fresh media were added. Radiolabelled ligand was added and the PSMA-inhibitor (2-PMPA) was applied in a final concentration of 10 μM to determine unspecific binding. All samples were prepared in triplicate. Following the incubation at 37° C., cells were washed twice to remove unbound activity and afterwards lysed in 1 mL of 0.5 M NaOH. Activity was measured in a gamma counter. Aliquots of the solution added to the cells were also measured for the calculation of the cellular uptake as % ID.

[4] = test system: PC3-PIP (PSMA positive) and PC-3 tumors (PSMA negative); experiment: Biodistribution of 177Lu labeled compounds 4 and 7 in tumor bearing nude mice; type: in vivo, CD-1 male nude mice
Experimental: as §1, §2
Biodistribution of [^68Ga]4, [^177Lu]4 and [^177Lu]7 was determined in nude mice bearing PIP PC3 (PSMA positive) and PC3 (PSMA negative) tumors on the left and right shoulder, respectively, over a period of 192 h (Table 3a, 3b and 3c). […] The uptake in PC3 tumors (PSMA negative) of both ligands, [^177Lu]4 and [^177Lu]7, was clearly much lower than those of PC-3 PIP tumors (PSMA positive).

SMILES: O=C(O)CC[C@H](NC(=O)N[C@@H](CCCCNC(=O)[C@H](Cc1ccccc1)NC(=O)COc1ccc(C[C@H](NC(=O)CNC(=O)CCC(C(=O)O)N2CCN(CC(=O)O)CCN(C(CCC(=O)NCCOCCOCCNC(=O)CCCc3ccc(I)cc3)C(=O)O)CCN(CC(=O)O)CC2)C(=O)O)cc1)C(=O)O)C(=O)O.[177Lu] (stereo partly shown) [[^177Lu]7]
- In vitro cell uptake ([1]; PIP PC3, 5 min): 5.0 % ID per 5 × 10^5 cells
- In vitro cell uptake ([1]; PIP PC3, 15 min): 7.8 % ID per 5 × 10^5 cells
- In vitro cell uptake ([1]; PIP PC3, 30 min): 10.1 % ID per 5 × 10^5 cells
- In vitro cell uptake ([1]; PIP PC3, 60 min): 11.4 % ID per 5 × 10^5 cells
- In vitro cell uptake ([1]; PIP PC3, 60 min, with PSMA inhibitor (2-PMPA, 2 uM)): 1.3 % ID per 5 × 10^5 cells
- In vitro cell uptake ([1]; PIP PC3, 120 min): 11.9 % ID per 5 × 10^5 cells
- Stability of injected doses [2]: stable
- In vitro cell uptake [3]: 0.7 % ID per 5 × 10^5 cells
- Biodistribution: Blood ([4]; 1 hr): 13.20 ± 3.17 % dose/g
- Biodistribution: Bone ([4]; 1 hr): 1.78 ± 0.97 % dose/g
- Biodistribution: Brain ([4]; 1 hr): 0.35 ± 0.04 % dose/g
- Biodistribution: Heart ([4]; 1 hr): 3.79 ± 0.67 % dose/g
- Biodistribution: Intestine ([4]; 1 hr): 1.89 ± 0.18 % dose/g
- Biodistribution: Kidney ([4]; 1 hr): 37.38 ± 4.08 % dose/g
- Biodistribution: Liver ([4]; 1 hr): 2.63 ± 0.69 % dose/g
- Biodistribution: Lung ([4]; 1 hr): 5.89 ± 0.53 % dose/g
- Biodistribution: Muscle ([4]; 1 hr): 1.88 ± 0.27 % dose/g
- Biodistribution: PC3 tumor ([4]; 1 hr): 5.26 ± 1.63 % dose/g
- Biodistribution: PIP PC3 tumor ([4]; 1 hr): 12.51 ± 0.94 % dose/g
- Biodistribution: Pancreas ([4]; 1 hr): 1.71 ± 0.40 % dose/g
- Biodistribution: Skin ([4]; 1 hr): 5.18 ± 1.59 % dose/g
- Biodistribution: Spleen ([4]; 1 hr): 2.87 ± 0.82 % dose/g
- Biodistribution: Stomach ([4]; 1 hr): 1.57 ± 0.39 % dose/g
- Biodistribution: Blood ([4]; 4 hrs): 12.06 % dose/g and 12.06 ± 2.26 % dose/g
- Biodistribution: Bone ([4]; 4 hrs): 2.05 ± 0.89 % dose/g
- Biodistribution: Brain ([4]; 4 hrs): 0.37 ± 0.08 % dose/g
- Biodistribution: Heart ([4]; 4 hrs): 3.96 ± 0.63 % dose/g
- Biodistribution: Intestine ([4]; 4 hrs): 2.97 ± 1.71 % dose/g
- Biodistribution: Kidney ([4]; 4 hrs): 60.07 ± 2.41 % dose/g
- Biodistribution: Liver ([4]; 4 hrs): 2.92 ± 0.85 % dose/g
- Biodistribution: Lung ([4]; 4 hrs): 6.07 ± 0.66 % dose/g
- Biodistribution: Muscle ([4]; 4 hrs): 1.55 ± 0.84 % dose/g
- Biodistribution: PC3 tumor ([4]; 4 hrs): 5.17 ± 1.02 % dose/g
- Biodistribution: PIP PC3 tumor ([4]; 4 hrs): 35.34 ± 12.11 % dose/g
- Biodistribution: Pancreas ([4]; 4 hrs): 2.08 ± 0.82 % dose/g
- Biodistribution: Skin ([4]; 4 hrs): 5.85 ± 2.04 % dose/g
- Biodistribution: Spleen ([4]; 4 hrs): 6.16 ± 2.81 % dose/g
- Biodistribution: Stomach ([4]; 4 hrs): 1.86 ± 1.12 % dose/g
- Biodistribution: Blood ([4]; 24 hrs (1 day)): 1.79 ± 0.98 % dose/g
- Biodistribution: Bone ([4]; 24 hrs (1 day)): 0.33 ± 0.14 % dose/g
- Biodistribution: Brain ([4]; 24 hrs (1 day)): 0.08 ± 0.04 % dose/g
- Biodistribution: Heart ([4]; 24 hrs (1 day)): 0.73 ± 0.42 % dose/g
- Biodistribution: Intestine ([4]; 24 hrs (1 day)): 0.41 ± 0.24 % dose/g
- Biodistribution: Kidney ([4]; 24 hrs (1 day)): 18.51 ± 7.79 % dose/g
- Biodistribution: Liver ([4]; 24 hrs (1 day)): 0.57 ± 0.27 % dose/g
- Biodistribution: Lung ([4]; 24 hrs (1 day)): 1.33 ± 0.85 % dose/g
- Biodistribution: Muscle ([4]; 24 hrs (1 day)): 0.36 ± 0.24 % dose/g
- Biodistribution: PC3 tumor ([4]; 24 hrs (1 day)): 2.15 ± 0.69 % dose/g
- Biodistribution: PIP PC3 tumor ([4]; 24 hrs (1 day)): 35.34±12.11 % dose/g and 34.36 ± 6.87 % dose/g
- Biodistribution: Pancreas ([4]; 24 hrs (1 day)): 0.45 ± 0.30 % dose/g
- Biodistribution: Skin ([4]; 24 hrs (1 day)): 1.37 ± 0.63 % dose/g
- Biodistribution: Spleen ([4]; 24 hrs (1 day)): 0.75 ± 0.17 % dose/g
- Biodistribution: Stomach ([4]; 24 hrs (1 day)): 0.36 ± 0.23 % dose/g
- Biodistribution: Blood ([4]; 48 hrs (2 days)): 0.84 ± 0.25 % dose/g
- Biodistribution: Bone ([4]; 48 hrs (2 days)): 0.19 ± 0.03 % dose/g
- Biodistribution: Brain ([4]; 48 hrs (2 days)): 0.06 ± 0.01 % dose/g
- Biodistribution: Heart ([4]; 48 hrs (2 days)): 0.59 ± 0.21 % dose/g
- Biodistribution: Intestine ([4]; 48 hrs (2 days)): 0.23 ± 0.07 % dose/g
- Biodistribution: Kidney ([4]; 48 hrs (2 days)): 16.13 ± 6.19 % dose/g
- Biodistribution: Liver ([4]; 48 hrs (2 days)): 0.42 ± 0.08 % dose/g
- Biodistribution: Lung ([4]; 48 hrs (2 days)): 0.93 ± 0.26 % dose/g
- Biodistribution: Muscle ([4]; 48 hrs (2 days)): 0.22 ± 0.07 % dose/g
- Biodistribution: PC3 tumor ([4]; 48 hrs (2 days)): 1.77 ± 0.55 % dose/g
- Biodistribution: PIP PC3 tumor ([4]; 48 hrs (2 days)): 41.80 ± 10.71 % dose/g
- Biodistribution: Pancreas ([4]; 48 hrs (2 days)): 0.39 ± 0.18 % dose/g
- Biodistribution: Skin ([4]; 48 hrs (2 days)): 0.63 ± 0.03 % dose/g
- Biodistribution: Spleen ([4]; 48 hrs (2 days)): 1.27 ± 1.12 % dose/g
- Biodistribution: Stomach ([4]; 48 hrs (2 days)): 0.18 ± 0.02 % dose/g
- Biodistribution: Blood ([4]; 96 hrs (4 days)): 0.11 ± 0.10 % dose/g
- Biodistribution: Bone ([4]; 96 hrs (4 days)): 0.11 ± 0.01 % dose/g
- Biodistribution: Brain ([4]; 96 hrs (4 days)): 0.02 ± 0.01 % dose/g
- Biodistribution: Heart ([4]; 96 hrs (4 days)): 0.30 ± 0.23 % dose/g
- Biodistribution: Intestine ([4]; 96 hrs (4 days)): 0.19 ± 0.18 % dose/g
- Biodistribution: Kidney ([4]; 96 hrs (4 days)): 4.28 ± 2.61 % dose/g
- Biodistribution: Liver ([4]; 96 hrs (4 days)): 0.22 ± 0.09 % dose/g
- Biodistribution: Lung ([4]; 96 hrs (4 days)): 0.31 ± 0.22 % dose/g
- Biodistribution: Muscle ([4]; 96 hrs (4 days)): 0.18 ± 0.12 % dose/g
- Biodistribution: PC3 tumor ([4]; 96 hrs (4 days)): 0.97 ± 0.56 % dose/g
- Biodistribution: PIP PC3 tumor ([4]; 96 hrs (4 days)): 24.23 ± 13.09 % dose/g
- Biodistribution: Pancreas ([4]; 96 hrs (4 days)): 0.09 ± 0.06 % dose/g
- Biodistribution: Skin ([4]; 96 hrs (4 days)): 0.46 ± 0.22 % dose/g
- Biodistribution: Spleen ([4]; 96 hrs (4 days)): 0.52 ± 0.30 % dose/g
- Biodistribution: Stomach ([4]; 96 hrs (4 days)): 0.09 ± 0.06 % dose/g
- Biodistribution: Blood ([4]; 192 hrs (8 days)): 0.01 ± 0.00 % dose/g
- Biodistribution: Bone ([4]; 192 hrs (8 days)): 0.09 ± 0.01 % dose/g
- Biodistribution: Brain ([4]; 192 hrs (8 days)): 0.01 ± 0.00 % dose/g
- Biodistribution: Heart ([4]; 192 hrs (8 days)): 0.07 ± 0.01 % dose/g
- Biodistribution: Intestine ([4]; 192 hrs (8 days)): 0.12 ± 0.05 % dose/g
- Biodistribution: Kidney ([4]; 192 hrs (8 days)): 1.58 ± 0.43 % dose/g
- Biodistribution: Liver ([4]; 192 hrs (8 days)): 0.12 ± 0.02 % dose/g
- Biodistribution: Lung ([4]; 192 hrs (8 days)): 0.09 ± 0.02 % dose/g
- Biodistribution: Muscle ([4]; 192 hrs (8 days)): 0.03 ± 0.00 % dose/g
- Biodistribution: PC3 tumor ([4]; 192 hrs (8 days)): 0.35 ± 0.03 % dose/g
- Biodistribution: PIP PC3 tumor ([4]; 192 hrs (8 days)): 13.14 ± 2.57 % dose/g
- Biodistribution: Pancreas ([4]; 192 hrs (8 days)): 0.03 ± 0.00 % dose/g
- Biodistribution: Skin ([4]; 192 hrs (8 days)): 0.16 ± 0.03 % dose/g
- Biodistribution: Spleen ([4]; 192 hrs (8 days)): 0.30 ± 0.07 % dose/g
- Biodistribution: Stomach ([4]; 192 hrs (8 days)): 0.10 ± 0.09 % dose/g
- Time of highest uptake in PIP PC3 tumors ([4]; mouse, in vivo): 48 h
- Uptake in PC3 tumors (PSMA negative) versus PC-3 PIP tumors (PSMA positive) ([4]; mouse, in vivo): much lower
